Reference: article PMC5030124 (Nature chemical biology, 2016)

What was measured:
LNCaP-AR cells = assay: Prostate cancer cell proliferation assay, LNCaP-AR; conditions: 7 days, increasing doses, no R1881
[1] = test system: AR target gene expression in LNCaP-AR cells; assay: Real-time PCR of AR target genes in LNCaP-AR cells; assay type: cell-based; conditions: CBs 20 μM, Enz 10 μM; for AR target gene expression, absence of R1881: Bic 10 μM
in vivo = conditions: NSG, mouse, ip
[2] = test system: AR recruitment to KLK3 and NKX3-1 regulatory regions in LNCaP-AR cells; assay: Chromatin immunoprecipitation assay, LNCaP-AR cells; assay type: cell-based; conditions: Enz 10 μM, Bic 10 μM, 10 20 μM, R1881 0.1 nM
[3] = test system: AR subcellular distribution in VCaP cells; assay: High content imaging of AR N/C ratio, VCaP cells; conditions: R1881 0.1 nM, Enz 20 μM, 10 20 μM
[4] = test system: AR subcellular distribution in HEK293 cells expressing wt-AR; assay: High content imaging of AR N/C ratio, HEK293 cells expressing wt-AR; conditions: R1881 0.1 nM, Enz 20 μM, 10 20 μM
[5] = test system: nuclear AR in HEK293 cells expressing wt-AR; assay: Cellular fractionation assay, HEK293 cells expressing wt-AR; assay type: cell-based; conditions: 4 hours, R1881 0.1 nM

SMILES | cell growth of LNCaP-AR cells (LNCaP-AR cells) | AR target gene expression, absence of R1881 [1] | AR target gene expression, presence of R1881 ([1]; R1881 0.1 nM) | MTD (in vivo) [mg/kg] | recruitment of AR to DNA (ChIP) [2] | AR nuclear-to-cytoplasmic (N/C) ratio [3] | AR nuclear-to-cytoplasmic (N/C) ratio [4] | AR in nuclear and cytoplasmic fractions [5]
CNC(=O)c1ccc(N2C(=S)N(c3ccc(C#N)c(C(F)(F)F)c3)C(=O)C2(C)C)cc1F [Enz, enzalutamide] | without effect | did not promote AR target gene transcription | reversed androgen-stimulated gene expression | 15 | without effect |  |  | 
CC(O)(CS(=O)(=O)c1ccc(F)cc1)C(=O)Nc1ccc(C#N)c(C(F)(F)F)c1 (stereo not drawn) [Bic, bicalutamide] | promoted cellular proliferation | partial agonist |  |  | facilitated AR recruitment to DNA |  |  | 
C[C@]1(O)CC[C@H]2[C@@H]3CCC4=CC(=O)CCC4=C3C=C[C@@]21C [R1881] |  |  |  |  | facilitated AR recruitment to DNA | increase in AR nuclear-to-cytoplasmic (N/C) ratio | increase in AR nuclear-to-cytoplasmic (N/C) ratio | movement of AR from the cytoplasmic to nuclear fraction
